Measurements: patent US5217950A, “Nisin compositions for use as enhanced, broad range bactericides” (Applied Microbiology, Inc., priority 1992, dated 1993)
Where no end group is shown, it is not given here.

Assays:
E. coli = test: bactericidal activity: percent bacterial survival after treatment, suspension in buffer; assay type: cell-based, Escherichia coli; conditions: for Percentage E. coli Survival at 2 hours: 20 mM Tris pH 8.0, 37° C
Protocol: (§1) All tests in the following examples were performed at 37° C. The efficacy of the enhanced broad range bactericides was determined by assaying bactericidal activity as measured by the percent bacterial survival after treatment with the bactericide. Generally, after incubation of a 10^7 cell per ml suspension of target species with the novel bactericide for specified lengths of time, bacteria were collected by centrifugation for 2 minutes. The bacterial pellet was washed free of the bactericide with a rescue buffer, termed herein Phage buffer (50 mM Tris-HCl buffer pH 7.8, 1 mM MgSO4, 4 mM CaCl2, 0.1M Nacl, and 0.1% gelatin), resuspended and serially diluted into Phage buffer, and 100 μl of the suspended bacteria were spread on nutrient agar plates. Surviving bacteria were determined by scoring colony forming units (CFU) after incubation for 24-48 hours at 37° C.
The effects of the bactericide were measured as a function of percentage bacteria survival after 2 hours.
Incubations were performed in 20 mM Tris-HCl, […] at 37° C.

Listeria monocytogenes [1] = test: bactericidal activity in milk; assay type: cell-based
Protocol: (§2) All tests in the following examples were performed at 37° C. The efficacy of the enhanced broad range bactericides was determined by assaying bactericidal activity as measured by the percent bacterial survival after treatment with the bactericide. Generally, after incubation of a 10^7 cell per ml suspension of target species with the novel bactericide for specified lengths of time, bacteria were collected by centrifugation for 2 minutes. The bacterial pellet was washed free of the bactericide with a rescue buffer, termed herein Phage buffer (50 mM Tris-HCl buffer pH 7.8, 1 mM MgSO4, 4 mM CaCl2, 0.1M Nacl, and 0.1% gelatin), resuspended and serially diluted into Phage buffer, and 100 μl of the suspended bacteria were spread on nutrient agar plates. Surviving bacteria were determined by scoring colony forming units (CFU) after incubation for 24-48 hours at 37° C. An effective bactericide according to this invention is one which allows less than 0.1% of the initial viable count of the bacteria to survive.
An example of where the application of nisin is limited by its available activity is illustrated by the data in Table 15B.
(§3) Incubations were in milk at 37° C.

Listeria monocytogenes [2] = test: bactericidal activity: percent bacterial survival in Tris buffer; assay type: cell-based; conditions: 20 mM Tris-HCl pH 8.0
Protocol: as §2
(§4) Incubations were performed in 20 mM Tris-HCl, pH at 8.0 at 37° C.

[3] = tested on: S. typhimurium on chicken muscle; test: bactericidal activity on inoculated chicken muscle, survival of unadhered cells; assay type: cell-based, Salmonella typhimurium
Protocol: as §2
Incubations were performed in either 50 mM sodium acetate, pH 5.0, or 20 mM Tris, pH 8.0 at 37° C.
Cubes of chicken muscle were cleansed with sodium hypochlorite and povidone iodine prior to use. To inoculate the tissue, the cubes of chicken muscle were dipped into a 10^8 cells/ml suspension of S. typhimurium in 20 mM Tris HCl, pH 8.0. Excess moisture was removed from dipped cubes by tapping. The chicken samples were placed into sufficient buffer containing the nisin composition to cover the tissue and incubated for 2 hours at 37° C. after which the tissue was removed to sufficient Phage buffer to cover the tissue. The bacteria remaining in the test solution were collected by centrifugation, washed with Phage buffer, and combined with bacteria washed from the tissue by Phage buffer. The combined samples (termed "unadhered" cells) were serially diluted and 100 μl aliquots were plated for determination of surviving bacteria.
(§5) Cubes of chicken muscle were cleansed with sodium hypochlorite and povidone iodine prior to use. To inoculate the tissue, the cubes of chicken muscle were dipped into a 10^8 cells/ml suspension of S. typhimurium in 20 mM Tris HCl, pH 8.0. Excess moisture was removed from dipped cubes by tapping. The tissue was placed into sufficient buffer containing the nisin compositions to cover the tissue, and incubated for 2 hours at 37° C. after which the tissue was removed to sufficient Phage buffer to cover the tissue. The bacteria remaining in the test solution were collected by centrifugation, washed with Phage buffer, and combined with bacteria washed from the tissue by Phage buffer. The combined samples (termed "unadhered" cells) were serially diluted and 100 μl aliquots were plated for determination of surviving bacteria.
as §5, with “cleaned” for “cleansed”, “50” for “20”, “sodium acetate buffer,” for “Tris HCl,”, “5.0.” for “8.0.”, “containing” for “containing the”

S. typhimurium = test: bactericidal activity: percent bacterial survival after treatment, suspension in buffer; assay type: cell-based, Salmonella typhimurium
Protocol: as §1
The control (Test #1) is identical to the control of Example 1 (Table 1).

Staphylococcus aureus = test: bactericidal activity: percent bacterial survival, influence of pH and EDTA; assay type: cell-based
Protocol: as §2
Incubations were performed in 50 mM sodium acetate buffer, pH 5.0 or 20 m
TrisHCl buffer, pH 8.0 at 37° C.

Streptococcus mutans [4] = test: bactericidal activity and kinetics: percent bacterial survival in Tris buffer; assay type: cell-based; conditions: for % Survival: 1.0 mM EDTA, nisin 0, 20 mM Tris-HCl pH 7.3
Protocol: Incubations were performed in 20 mM Tris-HCl, pH 8.0 at 37° C.
The suspensions were incubated for various times ranging from 0.5 to 60 minutes with the bactericides. The bactericidal efficacy of the bactericides was estimated by determining the percent survival of bacteria.
Incubations were performed in 20 mM Tris-HCl, pH 7.3 at 37° C.

Streptococcus agalactiae = test: bactericidal activity in milk; assay type: cell-based
Protocol: as §2
However, the combination of the two agents, 0.1% monolaurin and nisin 0.2 μg/ml, is extremely potent towards S. agalactiae. […] Thus, when the application of nisin is limited by its available activity, a bactericide comprising nisin with a surfactant can be expected to be more useful.
as §3

K. pneumoniae = test: bactericidal activity: percent bacterial survival after treatment, suspension in buffer; assay type: cell-based, Klebsiella pneumoniae; conditions: 20 mM Tris pH 8.0, 37° C
Protocol: as §1
The effect was measured as a function of percentage bacterial survival after 2 hours.

Streptococcus mutans [5] = test: rapid bactericidal activity in the presence of divalent cation, 10% Fetal Calf Serum; assay type: cell-based; conditions: Nisin 3, no EDTA, CaCl3 0 mM
Protocol: Incubations were performed in 10% Fetal Calf Serum at 37° C.

Coryneform bacteria = test: bactericidal activity: percent bacterial survival in Tris buffer; assay type: cell-based, mixed population of axillary Coryneform bacteria; conditions: 20 mM Tris-HCl pH 8.0
Protocol: as §1, §4

Which results are given for Triton X-100?
Percentage E. coli Survival at 2 hours (E. coli; Triton X-100 1.0%, nisin 0, EDTA 0): 100%; bactericidal activity towards E. coli (E. coli; Triton X-100 1.0%, tests #3 and #4 of Table 4): no significant bactericidal activity

What does the source list for monooleate?
% Survival 2 hr (Listeria monocytogenes [1]; Monooleate 0.1%, nisin 0, 37° C): 67%; % Survival 2 hr (Listeria monocytogenes [1]; Monooleate 1.0%, nisin 0, 37° C): 63%; bactericidal activity towards L. monocytogenes (Listeria monocytogenes [1]; monooleate by itself): no bactericidal activity

“nisin (ITSISLCTPGCKTGALMGCNMKTATCHCSIHVSK; cysteine pairing not given here; also: lantibiotic, modifications not placed; UniProt P13068 24-57, looked up) [polypeptide bacteriocin with antimicrobial properties produced by strains of Streptococcus lactis]” was tested. Which “% Survival after 2 hr” value (Listeria monocytogenes [2]; nisin 3.0 μ/ml, EDTA 0) did it give?
The value was 0.71%.

What about the “% Survival at 2 hours (unadhered cells)” value ([3]; nisin 300 μg/ml, EDTA 0, 1% Bovine serum albumin, 20 mM Tris pH 8.0) of the same compound?
Its value is 0.02%.

What about the “% Survival at 2 hours (unadhered cells)” value ([3]; nisin 300 μg/ml, EDTA 0, 20 mM Tris pH 8.0) of the same compound?
Its value is 7.5%.

What about the “% Survival at 2 hours (unadhered cells)” value ([3]; nisin 300 μg/ml, EDTA 0, 50 mM sodium acetate pH 5.0) of the same compound?
The value was 0.1%.

And the “% Survival at 2 hours” value (S. typhimurium; nisin 10 μg/ml, EDTA 0, BSA 0, Tris buffer (Table 8))?
Its value is 51.3%.

And the “Percentage S. typhimurium Survival at 3 hours” value (S. typhimurium; nisin 50 μg/ml, EDTA 0, 20 mM Tris pH 8.0, 37° C)?
Its value is 7.0%.

And the “% Survival at 2 hours” value (S. typhimurium; nisin 100 μg/ml, EDTA 0, BSA 0, Tris buffer (Table 8))?
The value was 1.6%.

And the “Percentage S. typhimurium Survival at 3 hours” value (S. typhimurium; nisin 100 μg/ml, EDTA 0, 20 mM Tris pH 8.0, 37° C)?
Its value is 1.6%.

And the “% Survival at 2 hours” value (S. typhimurium; nisin 100 μg/ml, EDTA 0, 20 mM Tris pH 8.0, 37° C (Table 6))?
Its value is 4%.

What about the “% Survival at 2 hours” value (S. typhimurium; nisin 100 μg/ml, EDTA 0, 50 mM sodium acetate pH 5.0, 37° C) of the same compound?
Its value is 0.6%.

What about the “% Survival 2 hr” value (Staphylococcus aureus; nisin 3.0 μg/ml, EDTA 0, pH 5.0) of the same compound?
Its value is 0.6%.

And the “% Survival 2 hr” value (Staphylococcus aureus; nisin 3.0 μg/ml, EDTA 0, pH 8.0)?
Its value is 7.4%.

And the “% Survival after 2 hr” value (Streptococcus mutans [4]; nisin 0.1 μg/ml, EDTA 0, 20 mM Tris-HCl pH 8.0)?
The value was 4.3%.

What about the “% survival at 2 h” value (Streptococcus agalactiae; nisin 0.02 μg/ml, Monolaurin 0, 37° C) of the same compound?
Its value is 100%.

What about the “% survival at 2 h” value (Streptococcus agalactiae; nisin 0.2 μg/ml, Monolaurin 0, 37° C) of the same compound?
Its value is 2.2%.

And the “% Survival 2 hr” value (Listeria monocytogenes [1]; nisin 100 μg/ml, Monooleate 0, 37° C)?
Its value is 0.56%.

And the “% Survival at 2 hours” value (K. pneumoniae; nisin 100 μg/ml, EDTA 0)?
The value was 50%.

And the “% Survival at 2 hours” value (K. pneumoniae; nisin 300 μg/ml, EDTA 0)?
The value was 38%.

What about the “% survival at 1 min.” value (Streptococcus mutans [5]) of the same compound?
Its value is 2.9%.

What about the “Percentage E. coli Survival at 2 hours” value (E. coli; nisin 30 μg/ml, EDTA 0, Triton X-100 0) of the same compound?
Its value is 27%.

What about the “Percentage E. coli Survival at 2 hours” value (E. coli; nisin 100 μg/ml, EDTA 0, Triton X-100 0) of the same compound?
The value was 25%.

What about the “Percentage E. coli Survival at 2 hours” value (E. coli; nisin 300 μg/ml, EDTA 0, Triton X-100 0) of the same compound?
The value was 8.5%.

And the “% Survival 2 hr” value (Coryneform bacteria; nisin 3 μg/ml, EDTA 0)?
The value was 0.22%.

How did the “% survival at 2 h” value (Streptococcus agalactiae; Monolaurin 0.01%, nisin 0, 37° C) turn out when CCCCCCCCCCCC(=O)OCC(O)CO (stereo not drawn) [Monolaurin, monolaurin] was run?
The value was 100%.

And the “% survival at 2 h” value (Streptococcus agalactiae; Monolaurin 0.1%, nisin 0, 37° C)?
The value was 4.5%.

O=C([O-])CN(CCN(CC(=O)[O-])CC(=O)O)CC(=O)O.[Na+].[Na+] [EDTA] was tested. Which “% Survival after 2 hr” value (Listeria monocytogenes [2]; EDTA 1.0 mM, nisin 0) did it give?
Its value is 84%.

And the “% Survival at 2 hours” value ([3]; EDTA 1.0 mM, BSA 1.0%, nisin 0, pH 8.0)?
Its value is 27%.

What about the “% Survival at 2 hours (unadhered cells)” value ([3]; EDTA 10 mM, nisin 0, 20 mM Tris pH 8.0) of the same compound?
The value was 5.2%.

And the “% Survival at 2 hours (unadhered cells)” value ([3]; EDTA 10 mM, nisin 0, 50 mM sodium acetate pH 5.0 (Table 7))?
Its value is 6.4%.

What about the “% Survival at 2 hours” value (S. typhimurium; EDTA 1.0 mM, BSA 1.0%, nisin 0, 20 mM Tris pH 8.0) of the same compound?
Its value is 63%.

And the “% Survival at 2 hours” value (S. typhimurium; EDTA 2.0 mM, nisin 0, 20 mM Tris pH 8.0, 37° C)?
The value was 8.7%.

What about the “% Survival at 2 hours” value (S. typhimurium; EDTA 10 mM, nisin 0, 20 mM Tris pH 8.0, 37° C) of the same compound?
Its value is 14%.

And the “Percentage S. typhimurium Survival at 3 hours” value (S. typhimurium; EDTA 20 mM, nisin 0, 20 mM Tris pH 8.0, 37° C)?
Its value is 2.5%.

And the “% Survival at 2 hours” value (S. typhimurium; EDTA 50 mM, nisin 0, 50 mM sodium acetate pH 5.0, 37° C)?
Its value is 3.5%.

What about the “% Survival at 2 hours” value (S. typhimurium; EDTA 100 mM, nisin 0, 20 mM Tris pH 8.0, 37° C) of the same compound?
Its value is 45%.

What about the “% Survival 2 hr” value (Staphylococcus aureus; EDTA 0.3 mM, nisin 0, pH 8.0) of the same compound?
Its value is 100%.

What about the “% Survival 2 hr” value (Staphylococcus aureus; EDTA 1.0 mM, nisin 0, pH 8.0) of the same compound?
Its value is 81%.

And the “% Survival 2 hr” value (Staphylococcus aureus; EDTA 3.0 mM, nisin 0, pH 5.0)?
Its value is 100%.

And the “% Survival 2 hr” value (Staphylococcus aureus; EDTA 3.0 mM, nisin 0, pH 8.0)?
Its value is 100%.

What about the “% Survival 2 hr” value (Staphylococcus aureus; EDTA 10 mM, nisin 0, pH 8.0) of the same compound?
Its value is 100%.

And the “% Survival 2 hr” value (Staphylococcus aureus; EDTA 30 mM, nisin 0, pH 8.0)?
Its value is 100%.

What about the “% Survival” value (Streptococcus mutans [4]; incubation 3 minutes) of the same compound?
The value was 100%.

And the “% Survival” value (Streptococcus mutans [4]; incubation 60 minutes)?
The value was 100%.

And the “% Survival at 2 hours” value (K. pneumoniae; EDTA 20 mM, nisin 0)?
The value was 22%.

And the “% survival at 1 min.” value (E. coli; EDTA 1.0 mM, nisin 0, 20 mM Tris-HCl pH 7.0)?
The value was 100%.

And the “% Survival 2 hr” value (Coryneform bacteria; EDTA 0.3 mM, nisin 0)?
Its value is 4.6%.

What about the “% Survival 2 hr” value (Coryneform bacteria; EDTA 1.0 mM (last column, after 3.0), nisin 0) of the same compound?
The value was 36%.

What about the “% Survival 2 hr” value (Coryneform bacteria; EDTA 1.0 mM, nisin 0) of the same compound?
The value was 3.6%.

What about the “% Survival 2 hr” value (Coryneform bacteria; EDTA 3.0 mM, nisin 0) of the same compound?
Its value is 8%.
